Assay results as given in publication PMC5244392, “Interspecies cathelicidin comparison reveals divergence in antimicrobial activity, TLR modulation, chemokine induction and regulation of phagocytosis” (Scientific Reports, 2017).

Experiments:
RAW264.7 cells = assay: Phagocytosis assay with fluorescent latex beads; type: cell-based, murine; conditions: 30 min; for Summary class, phagocytosis / Effect on bead uptake (phagocytosis), in words: latex beads 10 per cell; for Summary class, phagocytosis: 37 °C, MFI corrected for 0 °C, peptide 0.31-5 μM, − = no significant effect, N = 3; for Effect on bead uptake (phagocytosis), in words: peptide 0.31, 1.25 and 5 μM
Procedure: Red fluorescent (λex 575 nm and λem 610 nm) carboxylate-modified polystyrene latex beads (0.5 μm; Sigma Aldrich, St. Louis, MO, USA) were washed three times with PBS and resuspended in culture medium. Peptide dilutions were prepared in culture medium and added to RAW264.7 cells, directly followed by the latex beads (ratio 10 beads to 1 cell). Cells were incubated for 30 minutes at 37 °C, 5% CO2 (energy-dependent uptake) or 0 °C (non-specific adherence), after which cells were washed extensively with ice-cold PBS supplemented with 1% FCS and 0.01% NaN3, to remove all free beads. After washing, cells were scraped and resuspended in FACS buffer (PBS supplemented with 0.5% BSA). Samples were measured with the BD FACSCanto II flow cytometer (BD Biosciences, San Jose, CA, USA) and analyzed with FlowJo software (Ashland, OR, USA). Mean fluorescence intensity (MFI), corrected for non-specific adherence, was used as an indicator for the number of beads taken up.
While the above-described functions of cathelicidins are well-known, relatively little is known about the influence of cathelicidins on phagocytosis. Therefore, RAW264.7 cells were incubated with fluorescent beads to study the effect of cathelicidins on phagocytosis. The uptake was corrected for fluorescence measured after incubation on ice instead of 37 °C, which inhibits the active process of phagocytosis. After 30 minutes, 90% of the RAW264.7 cells took up latex beads (Fig. 4A). Histograms exemplify changes in bead phagocytosis with different concentrations of K9CATH (Fig. 4B), eCATH-2 (Fig. 4C) and chCATH-3 (Fig. 4D). Effect of all cathelicidins are depicted by the average mean fluorescence intensity (MFI) in Fig. 4E.
Figure 4 Effects of cathelicidins on phagocytosis by RAW264.7 cells. RAW264.7 cells were incubated with cathelicidins (0.31 μM, 1.25 μM, and 5 μM) and red fluorescent latex beads (10 beads to 1 cell) at 37 °C (energy dependent uptake) or on ice (non-specific adherence) for 30 minutes. Histograms show control (no peptide present) bead uptake at 37 °C (gray, filled) and 0 °C (black line) (A), or uptake in presence of different concentrations of indicated cathelicidins (B–D); 0 μM (red, filled), 0.31 μM (black line), 1.25 μM (green line) or 5 μM (blue line). Uptake was quantified by determining the MFI after correction for 0 °C control (E). Results are presented as average +/− SEM (N = 3). Statistical differences were determined by Two-way ANOVA with Bonferroni post-hoc test.

E. coli O78 = assay: Bacterial growth delay (Bioscreen C), E. coli; type: cell-based, Escherichia coli; conditions: for Cmax, E. coli, DMEM: DMEM + FCS (10%); for Cmax, E. coli, DMEM / Cmax: cathelicidin concentration resulting in a delay in bacterial growth with minimal 10 hours, E. coli, MHB: 1 × 10^6 CFU/ml, peptide 0.31-20 μM, 16 h, 37 °C, — = no Cmax reached up to 20 μM; for Cmax, E. coli, DMEM / Cmax: cathelicidin concentration resulting in a delay in bacterial growth with minimal 10 hours, E. coli, MHB / Max: hours growth delay with 20 μM cathelicidin, E. coli, DMEM / Max: hours growth delay with 20 μM cathelicidin, E. coli, MHB: N = 4; for Delay of the growth of E. coli / Summary class, antimicrobial activity E. coli DMEM / Max: hours growth delay with 20 μM cathelicidin, E. coli, DMEM: DMEM + FCS; for Delay of the growth of E. coli: peptide concentration not given (0.31-20 μM tested); for Summary class, antimicrobial activity E. coli DMEM / Summary class, antimicrobial activity E. coli MHB: − is not defined in the key; for Cmax: cathelicidin concentration resulting in a delay in bacterial growth with minimal 10 hours, E. coli, MHB: 200 RPM; for Cmax: cathelicidin concentration resulting in a delay in bacterial growth with minimal 10 hours, E. coli, MHB / Max: hours growth delay with 20 μM cathelicidin, E. coli, MHB: time to OD 0.6 vs control; for Max: hours growth delay with 20 μM cathelicidin, E. coli, DMEM / Max: hours growth delay with 20 μM cathelicidin, E. coli, MHB: 20 μM peptide, given if no Cmax was reached
Procedure: E. coli O78 (Zoetis Animal Health, Kalamazoo, MI, USA), E. coli ATCC 25922, Staphylococcus aureus ATCC 29213, and methicillin resistant Staphylococcus aureus (MRSA) (WKZ-2, human clinical isolate) were grown overnight from a glycerol stock in Mueller Hinton Broth (MHB) (Becton Dickinson, USA). Before use, bacteria were grown to mid-log phase in MHB for 2 hours at 37 °C, 200 RPM. Murine RAW264.7 macrophages (ATCC-TIB-71) were obtained from the American Type Culture Collection (ATCC, Manassas, VA, USA) and cultured in DMEM (41966-029; Thermo Fisher Scientific, Waltham, MA, USA) supplemented with 10% FCS (Bodinco B.V., Alkmaar, the Netherlands) (DMEM + FCS) at 37 °C, 5.0% CO2. Cells were seeded in 96-wells plates at 5 × 10^5 cells/ml or 12-wells plates at 2 × 10^5/ml for adherence overnight prior to stimulation.
Peptides (0.63 to 40 μM) and bacteria mid-log cultures (2 * 10^6 CFU/ml) were prepared in MHB or DMEM + FCS and mixed (100 μl peptide + 100 μl bacterial culture) in a Bioscreen C analyzer plate (Oy Growth Curves Ab Ltd, Helsingfors, Finland). Plates were placed in a Bioscreen C analyzer (Oy Growth Curves Ab Ltd) and bacteria were grown for 16 h at 37 °C with 200 RPM. The OD was measured every 15 minutes using a wideband filter (450–580 nm) to measure bacterial growth. The time needed grow above an OD of 0.6 was determined for all concentrations. Activity of peptides was expressed as the Cmax, the concentration of peptide required to delay the growth for 10 h compared to the control. Or, for peptides with low activity (no Cmax), activity was expressed as the hours of growth delay at 20 μM. Unlike the classic MIC and MBC determination used in microbiology, this method also enabled comparison of peptides with low antibacterial activity.
Twelve cathelicidins from 6 different species were selected for this study, namely: human LL-37, murine CRAMP, dog K9CATH, equine CATH (eCATH)-1, -2 and -3, chicken CATH (chCATH)-1, -2, and -3, porcine PMAP-23 and -36 and PR-39 (Table 1). Antimicrobial activity against E. coli and MRSA was directly compared under standardized conditions in MHB, a medium optimized for bacterial growth. Bacterial growth delay was defined as the delay in hours for peptide-treated bacteria to reach an OD of 0.6, compared to the non-treated control. Cmax is the minimal concentration needed to delay growth for a minimum of 10 hours compared to the non-treated control (Table 1 and Fig. 1A).
Figure 1 Antibacterial activity of cathelicidins. E. coli and MRSA (1 × 10^6 CFU/ml) of were grown in MHB or DMEM ± FCS for 16 hours under constant shaking (200 RPM). Every 15 minutes the OD was measured. Growth delay was defined as the time needed for peptide-treated bacteria to grow above an OD of 0.6 compared to the control bacteria (no peptide added) (A). Cathelicidins were tested in different concentrations (0.31 μM, 0.63 μM, 1.25 μM, 2.5 μM, 5 μM, 10 μM, and 20 μM) to determine the antimicrobial activity in MHB against E. coli (B) or MRSA (C) and in more physiological medium DMEM + FCS (D,E). Results are presented as average +/− SEM (N = 4).

Substance | Summary class, phagocytosis (RAW264.7 cells) | Effect on bead uptake (phagocytosis), in words (RAW264.7 cells) | Cmax, E. coli, DMEM (E. coli O78) [µM] | Delay of the growth of E. coli (E. coli O78) | Summary class, antimicrobial activity E. coli DMEM (E. coli O78) | Cmax: cathelicidin concentration resulting in a delay in bacterial growth with minimal 10 hours, E. coli, MHB (E. coli O78; MHB) [µM] | Summary class, antimicrobial activity E. coli MHB (E. coli O78; MHB) | Max: hours growth delay with 20 μM cathelicidin, E. coli, DMEM (E. coli O78) [h] | Max: hours growth delay with 20 μM cathelicidin, E. coli, MHB (E. coli O78; MHB) [h] | Increase of bead uptake (RAW264.7 cells; latex beads, not significant) [%] | Activity against E. coli in MHB, in words (E. coli O78; MHB, peptide up to 20 μM)
Ac-GRFRRLRKKTRKRLKKIGKVLKWIPPIVGSIPLGCG [PMAP-36, porcine α-helical cathelicidin, N-acetylated, 36 residues, charge +13] | ↓↓ (↓↓ = significant decrease ≤5 μM) | only reduced phagocytosis at 5 μM | 2.5 | at least 7 hours | +++ (+++ = Cmax at ≤20 μM) | 5 | +++ (+++ = Cmax at ≤20 μM) | – | – | – | –
GLLRKGGEKIGEKLKKIGQKIKNFFQKLVPQPEQ [CRAMP, murine cathelicidin, 34 residues, charge +6] | ↓↓ (↓↓ = significant decrease ≤5 μM) | reduced bead-uptake in a dose-dependent manner | – | – | – | – | ++ (++ = >8 hours inhibition at 20 μM) | 2.5 | 9.0 | – | –
KRRHWFPLSFQEFLEQLRRFRDQLPFP [eCATH-2, equine CATH-2, 27 residues, charge +4] | – | – | – | – | – | – | ++ (++ = >8 hours inhibition at 20 μM) | 2.0 | 9.0 | ~50 | –
RFGRFLRKIRRFRPKVTITIQGSARF-NH2 [chCATH-2, chicken CATH-2, C-terminal amide, 26 residues, charge +9] | ↓↓ (↓↓ = significant decrease ≤5 μM) | reduced bead-uptake in a dose-dependent manner | 10 | at least 7 hours | +++ (+++ = Cmax at ≤20 μM) | 5 | +++ (+++ = Cmax at ≤20 μM) | – | – | – | –
RIIDLLWRVRRPQKPKFVTVWVR [PMAP-23, porcine α-helical cathelicidin, 23 residues, charge +6] | ↓↓ (↓↓ = significant decrease ≤5 μM) | reduced bead-uptake in a dose-dependent manner | – | – | – | – | ++ (++ = >8 hours inhibition at 20 μM) | 3.5 | 9.5 | – | –
RLKELITTGGQKIGEKIRRIGQRIKDFFKNLQPREEKS [Peptide K9CATH, dog cathelicidin, 38 residues, charge +6] | ↓↓ (↓↓ = significant decrease ≤5 μM) | reduced bead-uptake in a dose-dependent manner | – | – | – | – | – | 1.5 | 3.0 | – | no or very little activity
RRRPRPPYLPRPRPPPFFPPRLPPRIPPGFPPRFPPRFP [PR-39, porcine proline-rich cathelicidin forming a polyproline helix, 39 residues, charge +10] | – | did not affect bead uptake | – | at least 7 hours | + (+ = >4 hours inhibition at 20 μM) | 20 | +++ (+++ = Cmax at ≤20 μM) | 7.0 | – | – | –
RVKRFWPLVPVAINTVAAGINLYKAIRRK [chCATH-3, chicken CATH-3, 29 residues, charge +7] | – | did not affect bead uptake | – | – | + (+ = >4 hours inhibition at 20 μM) | 20 | +++ (+++ = Cmax at ≤20 μM) | 5.5 | – | – | –
